Experimental data reported in patent publication US10851115B2, “Heterocyclic compounds as RSV inhibitors” (Enanta Pharmaceuticals, Inc., priority 2017, dated 2020).

system: Human RSV-A (“Long” strain); assay: RSV in vitro cytoprotection assay in HEp-2 cells (ATPlite readout); type: cell-based; details: human respiratory syncytial virus, 96 h; HEp-2 cells, 4-day incubation, ATPlite; read-out: Human RSV-A (“Long” strain) EC50
Description: RSV is a single stranded negative sense RNA virus that causes respiratory tract infections which can be dangerous to infants, the elderly, and immunosuppressed individuals. Currently there is no vaccine, and therapeutic options are both costly and of limited effectiveness. These approved treatments are Ribavirin, and Palivizumab/Synagis (a monoclonal antibody). RSV has two genotypes, A and B, which differ primarily in the structure of the virus' surface “G” attachment protein. Our current primary screen focusses on RSV-A and uses an in vitro cytoprotection assay where compounds are added in 2-fold dilutions to cells which are then subjected to fully replicative viral particles. Cell viability is measured several days later along with separate measurements of compound cytotoxicity. This report focuses on the results of our most recent screening of compounds.
HEp-2 cells, (originally derived from tumors grown in irradiated-cortisonised weanling rats that had been injected with epidermoid carcinoma tissue from a person's larynx, but later found to be indistinguishable from HeLa cells by PCR DNA analysis), were used for the culturing of genotype A, “Long” strain RSV. Flasks were inoculated with RSV and viral stocks were collected once cytopathic effect (CPE) was greater than 90%. Viral stocks in 25% sucrose media were snap frozen using liquid nitrogen to increase viral stability. Viral stock titers were quantified by tissue culture infectious dose 50% (TCID50) using 8,000 cells per well and 3-fold viral dilutions across a 96-well plate, cultured for 4 days.
Following extensive parameter testing, the final assay is run as follows: HEp-2 cells are seeded into the inner 60 wells of a 96-well plate at 8,000 cells per well in a volume of 50 μL using Growth Media (DMEM without phenol red, 1% L-Glut, 1% Penn/Strep, 1% nonessential amino acids, 10% FBS). 2-Fold serial dilutions of control and test compounds are added to the wells in duplicate in a total volume of 25 μL. Viral stock is then added to the wells in a volume of 25 μL, bringing the total volume of each well to 100 μL. Each 96-well plate has a control column of 6 wells with cells and virus but no compound (negative control, max CPE), a column with cells but no compound or virus (positive control, minimum CPE), and a column with no cells or virus or compound (background plate/reagent control). The control wells with cells but no virus are given an additional 25 uL of growth media containing an equal quantity of sucrose as those wells receiving the viral stock in order to keep consistent in media and volume conditions. The outer wells of the plate are filled with 125 μL of growth media to act as a thermal and evaporative moat around the test wells. Following a 4-day incubation period, the plates are read using ATPlite (50 uL added per well), which quantifies the amount of ATP (a measure of cell health) present in each well. Assay plates are read using the Envision luminometer. In parallel, cytotoxicity is examined on an additional 96-well plate treated in an identical manner, but substituting the 25 μL of viral stock for 25 μL of growth media. […] EC50 ranges are as follows: A<0.01 μM; B 0.01-0.05 μM; C>0.05 μM.

| EC50 | Compound |
| --- | --- |
| 0.01 to 0.05 µM | Cc1cnc(N2CC3(CCOCC3)C2)c(C(=O)Nc2ccc(C(=O)N3CCc4cc(C(=O)Nc5c(F)cccc5F)sc4-c4ncccc43)cc2F)c1 [Example 47] |
| 0.01 to 0.05 µM | O=C(Nc1c(F)cc(F)cc1Cl)c1cc2c(s1)-c1cnccc1N(C(=O)c1ccc(NC(=O)c3cccnc3N3CC4(CCOCC4)C3)cc1)CC2 [Example 52] |
| < 0.01 µM | Cc1cnc(N2CC3(CCOCC3)C2)c(C(=O)Nc2ccc(C(=O)N3CCc4cc(-c5nc6ccccc6[nH]5)sc4-c4ncc(F)cc43)cc2)c1 [Example 58] |
| 0.01 to 0.05 µM | O=C(Nc1ccc(C(=O)N2CCc3cc(-c4nc5cccc(C(F)(F)F)c5[nH]4)sc3-c3ncc(F)cc32)cc1)c1cccnc1N1CC2(CCOCC2)C1 [Example 60] |
| < 0.01 µM | Cc1cnc(N2CC3(CCOCC3)C2)c(C(=O)Nc2ccc(C(=O)N3CCc4cc(C(=O)Nc5c(F)cc(F)cc5Cl)sc4-c4ncc(F)cc43)cc2)c1 [Example 65] |
| < 0.01 µM | Cc1cnc(N2CC3(CCOCC3)C2)c(C(=O)Nc2ccc(C(=O)N3CCc4cc(C(=O)Nc5c(Cl)cccc5Cl)sc4-c4ncc(F)cc43)cc2)c1 [Example 66] |
| > 0.05 µM | Cc1cnc(N2CC3(CCOCC3)C2)c(C(=O)Nc2ccc(C(=O)N3CCc4cc(C(=O)Nc5c(F)cccc5C(F)(F)F)sc4-c4ncc(F)cc43)cc2)c1 [Example 67] |
| < 0.01 µM | Cc1cnc(N2CC3(CCOCC3)C2)c(C(=O)Nc2ccc(C(=O)N3CCc4c(sc(C(=O)Nc5c(F)cccc5F)c4F)-c4ncccc43)cc2)c1 [Example 70, N-(2,6-difluorophenyl)-8-fluoro-5-(4-(5-methyl-2-(7-oxa-2-azaspiro[3.5]nonan-2-yl)nicotinamido)benzoyl)-6,7-dihydro-5H-pyrido[3,2-b]thieno[2,3-d]azepine-9-carboxamide] |
| < 0.01 µM | Cc1cnc(N2CC3(CCOCC3)C2)c(C(=O)Nc2ccc(C(=O)N3CCc4c(sc(C(=O)Nc5ncccc5F)c4F)-c4ncccc43)cc2)c1 [Example 72] |
| < 0.01 µM | Cc1cnc(N2CC3(CCOCC3)C2)c(C(=O)Nc2ccc(C(=O)N3CCc4c(sc(C(=O)Nc5c(C)cccc5F)c4F)-c4ncccc43)cc2)c1 [Example 73] |
| < 0.01 µM | Cc1cnc(N2CC3(CCOCC3)C2)c(C(=O)Nc2ccc(C(=O)N3CCc4c(sc(C(=O)Nc5c(C)cccc5C#N)c4F)-c4ncccc43)cc2)c1 [Example 75] |
| < 0.01 µM | Cc1ccc(C(=O)Nc2ccc(C(=O)N3CCc4c(sc(C(=O)Nc5c(F)cccc5F)c4F)-c4ncccc43)cc2)c(N2CC3(CCOCC3)C2)n1 [Example 81] |
| < 0.01 µM | Cc1ccc(C(=O)Nc2ccc(C(=O)N3CCc4c(sc(-c5nc6ccccc6[nH]5)c4F)-c4ncccc43)cc2)c(N2CC3(CCOCC3)C2)n1 [Example 82] |
| < 0.01 µM | Cc1ccc(C(=O)Nc2ccc(C(=O)N3CCc4c(sc(C(=O)Nc5c(C)cccc5F)c4F)-c4ncccc43)cc2)c(N2CC3(CCOCC3)C2)n1 [Example 83] |
| < 0.01 µM | Cc1ccc(C(=O)Nc2ccc(C(=O)N3CCc4c(sc(-c5nc6ccc(F)cc6[nH]5)c4F)-c4ncccc43)cc2)c(N2CC3(CCOCC3)C2)n1 [Example 88] |
| < 0.01 µM | Cc1cnc(N2CCC3(CC2)COC3)c(C(=O)Nc2ccc(C(=O)N3CCc4cc(C(=O)Nc5c(F)cccc5F)sc4-c4ncccc43)cc2)c1 [Example 89] |

Continued, compound first:

| Compound | EC50 |
| --- | --- |
| Cc1ccc(C(=O)Nc2ccc(C(=O)N3CCc4cc(C(=O)Nc5c(F)cccc5Cl)sc4-c4ncccc43)cc2)c(N2CC3(CCOCC3)C2)n1 [Example 44] | < 0.01 µM |
| Cc1ccc(C(=O)Nc2ccc(C(=O)N3CCc4cc(C(=O)Nc5c(F)cccc5C(F)(F)F)sc4-c4ncccc43)cc2)c(N2CC3(CCOCC3)C2)n1 [Example 45] | < 0.01 µM |
| Cc1ccc(C(=O)Nc2ccc(C(=O)N3CCc4cc(-c5nc6cccc(F)c6[nH]5)sc4-c4ncccc43)cc2)c(N2CC3(CCOCC3)C2)n1 [Example 46] | < 0.01 µM |
| Cc1cccc(F)c1NC(=O)c1cc2c(s1)-c1cccnc1N(C(=O)c1ccc(NC(=O)c3cccnc3N3CC4(CCOCC4)C3)cc1)CC2 [Example 50] | > 0.05 µM |
| O=C(Nc1c(F)cccc1F)c1cc2c(s1)-c1cnccc1N(C(=O)c1ccc(NC(=O)c3cccnc3N3CC4(CCOCC4)C3)cc1)CC2 [Example 51] | 0.01 to 0.05 µM |
| O=C(Nc1ccc(C(=O)N2CCc3cc(-c4nc5ccccc5[nH]4)sc3-c3cnccc32)cc1)c1cccnc1N1CC2(CCOCC2)C1 [Example 53] | > 0.05 µM |
| O=C(Nc1ccc(C(=O)N2CCc3cc(-c4nc5ccccc5[nH]4)sc3-c3ncc(F)cc32)cc1)c1cccnc1N1CC2(CCOCC2)C1 [Example 54] | 0.01 to 0.05 µM |
| O=C(Nc1c(F)cccc1F)c1cc2c(s1)-c1ncc(F)cc1N(C(=O)c1ccc(NC(=O)c3cccnc3N3CC4(CCOCC4)C3)cc1)CC2 [Example 55] | < 0.01 µM |
| O=C(Nc1c(F)cc(F)cc1F)c1cc2c(s1)-c1ncc(F)cc1N(C(=O)c1ccc(NC(=O)c3cccnc3N3CC4(CCOCC4)C3)cc1)CC2 [Example 56] | < 0.01 µM |
| O=C(Nc1ccc(C(=O)N2CCc3cc(-c4nc5cccc(Cl)c5[nH]4)sc3-c3ncc(F)cc32)cc1)c1cccnc1N1CC2(CCOCC2)C1 [Example 57] | 0.01 to 0.05 µM |
| O=C(Nc1c(F)cc(F)cc1Cl)c1cc2c(s1)-c1ncc(F)cc1N(C(=O)c1ccc(NC(=O)c3cccnc3N3CC4(CCOCC4)C3)cc1)CC2 [Example 59] | < 0.01 µM |
| Cc1cccc(F)c1NC(=O)c1cc2c(s1)-c1ncc(F)cc1N(C(=O)c1ccc(NC(=O)c3cccnc3N3CC4(CCOCC4)C3)cc1)CC2 [Example 61] | < 0.01 µM |
| O=C(Nc1c(F)cccc1C(F)(F)F)c1cc2c(s1)-c1ncc(F)cc1N(C(=O)c1ccc(NC(=O)c3cccnc3N3CC4(CCOCC4)C3)cc1)CC2 [Example 62] | < 0.01 µM |
| Cc1cnc(N2CC3(CCOCC3)C2)c(C(=O)Nc2ccc(C(=O)N3CCc4cc(-c5nc6cccc(Cl)c6[nH]5)sc4-c4ncc(F)cc43)cc2)c1 [Example 63] | < 0.01 µM |
| Cc1cnc(N2CC3(CCOCC3)C2)c(C(=O)Nc2ccc(C(=O)N3CCc4cc(-c5nc6cccc(F)c6[nH]5)sc4-c4ncc(F)cc43)cc2)c1 [Example 64] | < 0.01 µM |
| Cc1cnc(N2CC3COCC3C2)c(C(=O)Nc2ccc(C(=O)N3CCc4cc(-c5nc6ccccc6[nH]5)sc4-c4ncc(F)cc43)cc2)c1 (stereo not shown) [Example 68] | 0.01 to 0.05 µM |
| Cc1cnc(N2CC3COCC3C2)c(C(=O)Nc2ccc(C(=O)N3CCc4cc(C(=O)Nc5c(F)cccc5F)sc4-c4ncc(F)cc43)cc2)c1 (stereo not shown) [Example 69] | 0.01 to 0.05 µM |
| Cc1cnc(N2CC3(CCOCC3)C2)c(C(=O)Nc2ccc(C(=O)N3CCc4c(sc(-c5nc6ccccc6[nH]5)c4F)-c4ncccc43)cc2)c1 [Example 71] | < 0.01 µM |
| Cc1cnc(N2CC3(CCOCC3)C2)c(C(=O)Nc2ccc(C(=O)N3CCc4c(sc(C(=O)Nc5ccccc5)c4F)-c4ncccc43)cc2)c1 [Example 74] | < 0.01 µM |
| Cc1cnc(N2CC3(CCOCC3)C2)c(C(=O)Nc2ccc(C(=O)N3CCc4c(sc(C(=O)Nc5c(F)cccc5Cl)c4F)-c4ncccc43)cc2)c1 [Example 76] | < 0.01 µM |
| Cc1cnc(N2CC3(CCOCC3)C2)c(C(=O)Nc2ccc(C(=O)N3CCc4c(sc(C(=O)Nc5c(F)cccc5C(F)(F)F)c4F)-c4ncccc43)cc2)c1 [Example 77] | 0.01 to 0.05 µM |
| Cc1cnc(N2CC3(CCOCC3)C2)c(C(=O)Nc2ccc(C(=O)N3CCc4c(sc(-c5nc6cccc(F)c6[nH]5)c4F)-c4ncccc43)cc2)c1 [Example 78] | < 0.01 µM |
| Cc1cnc(N2CC3(CCOCC3)C2)c(C(=O)Nc2ccc(C(=O)N3CCc4c(sc(-c5nc6ccc(F)cc6[nH]5)c4F)-c4ncccc43)cc2)c1 [Example 79] | < 0.01 µM |
| Cc1ccc(C(=O)Nc2ccc(C(=O)N3CCc4c(sc(C(=O)Nc5ncccc5F)c4F)-c4ncccc43)cc2)c(N2CC3(CCOCC3)C2)n1 [Example 84] | < 0.01 µM |
| Cc1ccc(C(=O)Nc2ccc(C(=O)N3CCc4c(sc(-c5nc6cccc(F)c6[nH]5)c4F)-c4ncccc43)cc2)c(N2CC3(CCOCC3)C2)n1 [Example 85] | < 0.01 µM |
| Cc1ccc(C(=O)Nc2ccc(C(=O)N3CCc4c(sc(C(=O)Nc5c(F)cccc5Cl)c4F)-c4ncccc43)cc2)c(N2CC3(CCOCC3)C2)n1 [Example 86] | < 0.01 µM |
| Cc1ccc(C(=O)Nc2ccc(C(=O)N3CCc4c(sc(C(=O)Nc5c(F)cccc5C(F)(F)F)c4F)-c4ncccc43)cc2)c(N2CC3(CCOCC3)C2)n1 [Example 87] | < 0.01 µM |
